Data published in US7888357B2, “Anti-inflammatory and protein kinase inhibitor compositions and related methods for downregulation of detrimental cellular responses and inhibition of cell death” (Northwestern University, priority 2001, dated 2011).

Experiments:
[1] = tested on: cell culture; assay: Cytotoxicity in cell culture; assay type: cell-based; settings: over the entire dose range of inhibitor
Source text: The inhibition of iNOS and IL-1β production by MW01-070C, however, is not limited to LPS stimulation. […] The rationale for examination of Aβ stimulation is its involvement as an initiating event in models of AD initiation and progression. The stimulation by Aβ is seen (FIG. 6) with preparations of the Aβ peptide (see Experimental Procedures) that are known to have neurotoxic activity [Hu, J., Akama, K. T., Krafft, G. A., Chromy, B. A., and Van Eldik, L. J. (1998) Brain Res. 785, 195-206; Lambert, M. P. Barlow, A. K., Chromy, B. A., Edwards, C., Freed, R., Liosatos, M., Morgan, T. E., Rozovsky, I., Trommer, B., Viola, K. L., Wals, P., Zhang, C., Finch, C. E., Kraffk, G. A., and Klein, W. L. (1998) Proc. Natl. Acad. Sci. USA 95, 6448-6453]. The rationale for examination of S100 stimulation is its presence as an astrocyte protein that can function as an autocrine and paracrine cytokine, and its increased production in AD and other neuroinflammatory related disorders [Griffin, W. S. T., Stanley, L. C., Ling, C., White, L., MacLeod, V., Perrot, L. J., White, C. L., III, and Araoz, C. (1989) Proc. Natl. Acad. Sci. USA 86, 7611-7615; Hu, J., Castets, F., Guevara, J. L., and Van Eldik, L. J. (1996) J. Biol. Chem. 271, 2543-2547; Donato, R. (1999) Biochim. Biophys. Acta 1450, 191-231; Van Eldik, L. J., and Griffin, W. S. T. (1994) Biochim. Biophys. Acta 1223, 398-403]. […]

[2] = tested on: BV-2 microglial cells; assay: Cell-based screen for inhibition of LPS-stimulated NO release (Griess assay); design: species or system murine; settings: LPS-stimulated BV-2 cells, 24 hr, nitrite in conditioned media
Method: FIG. 1. Cell-based screen for inhibition of LPS-stimulated NO release. […] Inhibition is expressed as percent control, where the control is the NO accumulation from cells stimulated with LPS alone.
The rationale for using BV-2 cells in high throughput screening was the paucity of well-characterized human microglial cell lines, and the relevant activation responses and signaling pathways reflect those seen in human and rodent primary microglial cultures. Compounds were tested for their effects on NO accumulation in conditioned media of LPS-stimulated BV-2 cells by measurement of nitrite production by the Griess assay as a read-out for iNOS activity, as described previously. Stock solutions of compounds were prepared in dimethylsulfoxide (DMSO) or in water. When stock solutions were prepared in DMSO, control wells contained the same final concentration of DMSO as the compound-containing wells. […] Solutions of compounds for cell treatments were diluted to a 10× final concentration by dilution of stock solutions in αMEM media. The commercially available drugs tested were: compound 5 (KN93 from Alexis); compound 6 (pyrrolidinedithiocarbamate or PDTC from Sigma), compound 7 (SB203580 from Alexis Corporation), compound 8 (PD98059 from Alexis Corporation), and compound 9 (UO126 from Cell Signaling). […] Respectively, Western blots of cell lysates were done with the following antibodies: monoclonal anti-iNOS (1:1000 dilution, Transduction Labs); polyclonal anti-rat IL-1β (1:1000 dilution, R&D Systems, Inc.); monoclonal anti-glial fibrillary acidic protein (GFAP) (1:[…] dilution, Sigma); polyclonal anti-rat alioE (1:15,000 dilution) prepared as described; polyclonal anti-COX-2 (1:500 dilution) and monoclonal anti-phosphoATF2 (1:1000 dilution) from Santa Cruz Biotechnology, polyclonal anti-phosphoCREB (1:1000 dilution), and polyclonal anti-phosphop38 MAPK (1:1000 dilution). Reconstituted enzyme assays were done as described s. The sources of protein kinases were: bovine heart PKA from Promega, rat brain PKC from Calbiochem, rat CaMKII from New England Biolabs, chicken gizzard MLCK prepared as described, and a p38 MAP kinase kit containing recombinant Xenopus p38-MAPK and its human substrate from Upstate Biotechnology. The catalytic domains of these protein kinases retain a high level of amino acid sequence identity across mammalian species, consistent with the lack of documented major differences across species for the in vitro catalytic activity of a given kinase.
FIG. 4. Cell-based screen for functional effects of synthetic compounds on LPS-stimulated NO release from BV-2 cells. BV-2 cells were incubated for 24 hr with LPS (500 ng/ml) in the presence of increasing concentrations of: A) MW01-070C; B) MW01-026Z; C) MW01-118Z; D) MW01-119Z; E) MW01-051Z; F) MW01-160Z; G) MW01-196A; H) MW01-024Z; I) SB203580; J) PDTC; K) U0126; L) PD98059. The nitrite levels in conditioned media were determined. Inhibition is expressed as percentage of control values, where the control is the nitrite level in cells stimulated with LPS alone.
Compounds were tested for their effects on NO production by LPS-stimulated BV-2 cells as previously described [Mirzoeva, S., Koppal, T., Petrova, T. V., Lukas, T. J., Watterson, D. M., and Van Eldik, L. J. (1999) Brain Res. 844, 126-134]. The levels of nitrite, a stable NO metabolite, in conditioned media were determined by the Griess assay as previously described [Hu, J., Castets, F., Guevara, J. L., and Van Eldik, L. J. (1996) J. Biol. Chem. 271, 2543-2547]. Stock solutions of compounds were prepared in DMSO or in water. When stock solutions were prepared in DMSO, control wells contained the same final concentration of DMSO as the compound-containing wells. Solutions of compounds for cell treatments were diluted to a 10× final concentration by dilution of stock solutions of drugs in αMEM media.

[3] = tested on: rats; assay: Organ histology after high dose injections; assay type: in vivo, rat; settings: after high dose injections into rats (data not shown)

## N=c1cc2c(nn1CCCCCCCCCCC(=O)N1CCN(c3ncccn3)CC1)-c1ccccc1CC2 [MW01-070C]
[1]
  cytotoxicity in cell culture: no evidence of cytotoxicity
[2]
  inhibition of NO accumulation by activated glia: more effective
[2]; listed as 1
  inhibition of NO accumulation by activated glia: most active compound
[3]
  liver, kidney or brain damage based on histology: no major liver, kidney or brain damage
